Assays:
Tobacco CGS = target: T1, Tobacco CGS (Nicotiana tabacum, UniProt Q9ZPL5); assay: Micro Scale Thermophoresis (MST) direct binding to CGS; design: 6xHIS (N, cleaved yes); GB1 solubility tag (N, cleaved yes); made in house; host or cells: E. coli BL21; details: score 0-5; binding to labelled Tobacco CGS
T1 sequence (Q9ZPL5 79-540): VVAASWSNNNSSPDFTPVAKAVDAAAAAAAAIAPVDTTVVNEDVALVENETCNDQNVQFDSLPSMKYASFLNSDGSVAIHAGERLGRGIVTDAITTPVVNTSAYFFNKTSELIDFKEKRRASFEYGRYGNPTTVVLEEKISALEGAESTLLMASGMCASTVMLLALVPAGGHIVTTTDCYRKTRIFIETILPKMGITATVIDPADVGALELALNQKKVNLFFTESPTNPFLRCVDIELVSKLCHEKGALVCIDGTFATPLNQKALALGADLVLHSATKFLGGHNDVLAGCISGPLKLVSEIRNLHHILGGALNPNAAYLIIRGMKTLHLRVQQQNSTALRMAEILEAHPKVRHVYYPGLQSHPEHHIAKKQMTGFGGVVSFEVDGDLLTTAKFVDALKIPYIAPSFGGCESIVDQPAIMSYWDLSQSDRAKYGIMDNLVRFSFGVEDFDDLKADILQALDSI
Protocol: The direct binding of the compounds of the embodiments to the CGS was tested by Micro Scale Thermophoresis (MST). In the MST assay, the CGS protein was labelled with a fluorophore, the samples were heated, and changes in fluorescence were measured as a function of the ligand concentration. In the MST assay, similar to the expression and purification described above, the recombinant Tobacco CGS protein was expressed in E. coli BL21 cells and purified to homogeneity. For that particular purpose, the pET-11 vector containing the DNA sequence of Tobacco CGS with an N-terminus […] tag followed by a TEV-cleavable GB1 solubility tag was cloned and transformed into the bacteria cells. Cells were cultured to OD=0.8, and protein expression was induced by the addition of 1 mM IPTG. The cells were cultured for additional 16 hours temperature 25° C. Following cellular lysis, the soluble fraction was passed through the nickel column and the bound HIS-tagged protein was eluted by 300 mM imidazole. Then, the tags […] and GB1 were cleaved in dialysis o/n and the mixtures passed again through the nickel column to separate the CGS from the TEV and HIS-GB1 constructs. As a final step the CGS was run on S75 size exclusion chromatography. Thus, the MST assay was performed to measure the biding of the compounds to the CGS protein. For this purpose, the CGS was labelled with commercially available amine reactive fluorophore (Cat # MO-[…], NanoTemper) according to the manufacture instructions. The MST binding curves were then measured using the Monolith NT.115 apparatus by incubating the labelled protein with the indicated compounds in a dose-response manner.

[1] = tested on: E. coli lacking the endogenic MetB CGS gene, transformed to express the CGS from Arabidopsis; assay: Growth of engineered E. coli expressing Arabidopsis CGS in M9 minimal media, with and without methionine; type: cell-based; details: for E. coli Assay LE395 (0-5): score 0-5, growth of E. coli with Arabidopsis CGS gene in M9 minimal media; for E. coli specificity (MOA): score, growth with vs without external methionine (40 mg/L)
Protocol: In addition to the direct binding evaluation, specific assay to test the compounds activity and specificity were also developed. In this assay, E. coli cells, lacking the endogenic MetB CGS gene and transformed to express the CGS from Arabidopsis, were used. These cells were grown on M9 minimal media with and without external methionine supplemented to the cells, in the presence of the compounds of the embodiments. These selected compounds of the embodiments, capable of inhibiting the cell growth on M9, but incapable of affecting the cell growth when supplemented with methionine, were validated as methionine-pathway specific inhibitors.
In this assay, Methionine auxotroph E. coli mutant was transformed with PQE-30 vector containing the Arabidopsis CGS gene as previously described in Yael Hacham et al., Plant Physiol., February 2002, 128(2): 454-462. In order to test the effect of the small molecule inhibitors on the CGS and methionine pathway, growth curves of the E. coli in M9 minimal media with […] were measured with and without the addition of external methionine (40 mg/L) in the presence of variable compound concentrations. E. coli growth curves were measured by following the optical density at 600 nm of bacteria in 96 well-plate placed within Tecan M200 plate reader in orbital shaking mode at 37° C. The slope of each curve was estimated using the ‘linest’ function in Excel.

Arabidopsis thaliana = Arabidopsis thaliana root growth inhibition; type: in vivo; details: 168 h, root length ratio vs DMSO control, 50 μM compound, lower values indicate shorter root, larger effect, read-out: Arabidopsis (relative to DMSO)
Protocol: Finally, FIGS. 7a-7o are the photos of the Arabidopsis thaliana plants and the inhibition of their roots growth by the compounds of the present invention. These experiments were conducted as follows. Seeds were washed with 70% ethanol for one minute and then with sterile water. Sterilisation was performed with 50% bleaching solution (3%) and 0.2% Triton x-100 for ten minutes followed by a five-time wash with sterile water. The seeds were placed in six well-plates with half Murashige and Skoog medium (MS; Duchefa, Haarlem, Netherlands), containing 1% sucrose (w/v), pH 5.8. The plates with Arabidopsis thaliana seeds were placed at 4° C. for two days and then transferred for seven days to growth chamber (22±2° C.) at day/light cycles of 16/8 h. The plates were placed vertically. In each plate, a control including 0.1% DMSO in the medium was added. The compounds of the present invention were tested for their herbicidal efficiency by diluting 1000 times a 50 mM stock in DMSO leading to a final concentration of 50 μM with 0.1% DMSO.
In Tables 1, 2 and 4 above, Arabidopsis root length was measured after addition of 50-μM compound compared with the negative control (DMSO) treatment. Length values indicate the ratio between non-treated plates ([…]) and the length after the addition of 50 uM of each compound. Lower values indicate shorter root length, and consequently, larger effect.

Roquette = Roquette assay spray; type: in vivo

COc1cccc(C(=O)Nc2cccc(-c3nc(C)cc(=O)[nH]3)c2)c1 [IML-11]
MST Tobacco (0-5) (Tobacco CGS): 3
E. coli Assay LE395 (0-5) [1]: 3
E. coli specificity (MOA) [1]: 4

Cc1cc(=O)[nH]c(-c2cccc(NC(=O)c3ccc(O)cc3F)c2)n1 [IML-14]
MST Tobacco (0-5) (Tobacco CGS): 3
E. coli Assay LE395 (0-5) [1]: 3
E. coli specificity (MOA) [1]: 4

Cc1cc(=O)[nH]c(-c2ccc(NC(=O)c3c(O)cccc3F)cc2)n1 [IML-15]
MST Tobacco (0-5) (Tobacco CGS): 1
E. coli Assay LE395 (0-5) [1]: 3
E. coli specificity (MOA) [1]: 4

Cc1cc(=O)[nH]c(-c2cccc(NC(=O)c3ccccc3OC(F)F)c2)n1 [IML-22]
MST Tobacco (0-5) (Tobacco CGS): 3
E. coli Assay LE395 (0-5) [1]: 2
E. coli specificity (MOA) [1]: 4

CCc1ccc(C(=O)Nc2cccc(-c3nc(C)cc(=O)[nH]3)c2)cc1 [IML-24]
activity at 50 µM (Arabidopsis thaliana): 35%
Roquette assay spray (twice average) (Roquette): 2.0

COc1ccnc(C(=O)Nc2cccc(-c3nc(C)cc(=O)[nH]3)c2)c1 [IML-62]
MST Tobacco (0-5) (Tobacco CGS): 4
E. coli Assay LE395 (0-5) [1]: 3
E. coli specificity (MOA) [1]: 5

Cc1ccc(C(=O)Nc2cccc(-c3nc(C)cc(O)n3)c2)nc1 [IML-66]
MST Tobacco (0-5) (Tobacco CGS): 3
E. coli Assay LE395 (0-5) [1]: 3
E. coli specificity (MOA) [1]: 4

COc1cccc(C(=O)Nc2cccc(-n3cc(C)nc3O)c2)c1 [IML-67]
E. coli Assay LE395 (0-5) [1]: 3
E. coli specificity (MOA) [1]: 4

COc1cccc(C(=O)Nc2cccc(-c3cc(C(F)(F)F)[nH]n3)c2)c1 [IML-70]
E. coli Assay LE395 (0-5) [1]: 3
E. coli specificity (MOA) [1]: 5

CCc1ccccc1NC(=O)CNC(=O)c1ccc2nn[nH]c2c1 [IML-102]
MST Tobacco (0-5) (Tobacco CGS): 5

CC(=O)Nc1cccc(NC(=O)CNC(=O)c2ccc3nn[nH]c3c2)c1 [IML-110]
MST Tobacco (0-5) (Tobacco CGS): 5
E. coli Assay LE395 (0-5) [1]: 2
E. coli specificity (MOA) [1]: 4

CCc1ccccc1NC(=O)CNC(=O)c1ccc2c(c1)nnn2CC [IML-112]
MST Tobacco (0-5) (Tobacco CGS): 4

CCc1ccccc1NC(=O)CN(C)C(=O)c1ccc2nc[nH]c2c1 [IML-113]
MST Tobacco (0-5) (Tobacco CGS): 5

O=C(O)C1CN(C(=O)c2ccn(-c3ccccc3)n2)c2ccccc21 (stereo not drawn) [IML-121]
activity at 50 µM (Arabidopsis thaliana): 9%
Roquette assay spray (single average) (Roquette): 3.0
Roquette assay spray (twice average) (Roquette): 4.0
E. coli Assay LE395 (0-5) [1]: 2
E. coli specificity (MOA) [1]: 4
TEV (relative to DMSO) (TEV (relative to DMSO)): 0.28

O=C(O)C1CN(C(=O)c2cc(-c3ccccc3)on2)c2ccccc21 (stereo not drawn) [IML-124]
activity at 50 µM (Arabidopsis thaliana): 0%
Roquette assay spray (twice average) (Roquette): 3.0
E. coli Assay LE395 (0-5) [1]: 2
E. coli specificity (MOA) [1]: 5
TEV (relative to DMSO) (TEV (relative to DMSO)): 0.30

O=C(O)C1CN(C(=O)c2cc(-c3ccccc3)[nH]n2)c2ccccc21 (stereo not drawn) [IML-125]
activity at 50 µM (Arabidopsis thaliana): 45%

O=C(CNC(=O)c1ccc2[nH]ncc2c1)Nc1ccccc1 [IML-134]
activity at 50 µM (Arabidopsis thaliana): 67%
MST Tobacco (0-5) (Tobacco CGS): 3
E. coli Assay LE395 (0-5) [1]: 3
E. coli specificity (MOA) [1]: 4

O=C(c1cc(-c2ccccc2)on1)N1CCc2cc([N+](=O)[O-])ccc21 [IML-161]
TEV (relative to DMSO) (TEV (relative to DMSO)): 0.14

O=C(O)C1CN(C(=O)c2cnn(-c3ccccc3)c2)c2ccccc21 (stereo not drawn) [IML-162]
activity at 50 µM (Arabidopsis thaliana): 38%
Roquette assay spray (single average) (Roquette): 2.0
E. coli Assay LE395 (0-5) [1]: 3
E. coli specificity (MOA) [1]: 5
TEV (relative to DMSO) (TEV (relative to DMSO)): 0.20

O=C(O)C1Cc2ccccc2N1C(=O)c1cc(-c2ccccc2)on1 (stereo not drawn) [IML-163]
activity at 50 µM (Arabidopsis thaliana): 0%
Roquette assay spray (twice average) (Roquette): 4.0
E. coli Assay LE395 (0-5) [1]: 4
E. coli specificity (MOA) [1]: 5
TEV (relative to DMSO) (TEV (relative to DMSO)): 0.31

O=C(O)CC1CN(C(=O)c2cc(-c3ccccc3)on2)c2ccccc21 (stereo not drawn) [IML-164]
activity at 50 µM (Arabidopsis thaliana): 4%
Roquette assay spray (single average) (Roquette): 3.0
Roquette assay spray (twice average) (Roquette): 3.0
TEV (relative to DMSO) (TEV (relative to DMSO)): 0.11

COc1cccc(-c2cc(C(=O)N3CC(C(=O)O)c4ccccc43)no2)c1 (stereo not drawn) [IML-166]
activity at 50 µM (Arabidopsis thaliana): 0%
Roquette assay spray (single average) (Roquette): 2.0
Roquette assay spray (twice average) (Roquette): 4.0
TEV (relative to DMSO) (TEV (relative to DMSO)): 0.06

O=C(O)C1CN(C(=O)c2cc(-c3ccccc3Cl)on2)c2ccccc21 (stereo not drawn) [IML-167]
activity at 50 µM (Arabidopsis thaliana): 0%
Roquette assay spray (single average) (Roquette): 1.3
Roquette assay spray (twice average) (Roquette): 3.5
TEV (relative to DMSO) (TEV (relative to DMSO)): 0.31

O=C(O)C1CN(C(=O)c2cc(-c3cccnc3)on2)c2ccccc21 (stereo not drawn) [IML-180]
activity at 50 µM (Arabidopsis thaliana): 58%
MST Tobacco (0-5) (Tobacco CGS): 3
E. coli Assay LE395 (0-5) [1]: 1
E. coli specificity (MOA) [1]: 5
TEV (relative to DMSO) (TEV (relative to DMSO)): 0.25

O=C(O)C1CN(C(=O)c2cc(-c3cccc(Cl)c3)on2)c2ccccc21 (stereo not drawn) [IML-181]
activity at 50 µM (Arabidopsis thaliana): 0%
Roquette assay spray (single average) (Roquette): 0.5
TEV (relative to DMSO) (TEV (relative to DMSO)): 0.22

O=C(c1ccc2[nH]ncc2c1)N1CCCC(Nc2ccccc2)C1 (stereo not drawn) [IML-203]
activity at 50 µM (Arabidopsis thaliana): 50%

O=C(c1ccc2[nH]ncc2c1)N1CCC(Nc2ccccc2)C1 (stereo not drawn) [IML-204]
activity at 50 µM (Arabidopsis thaliana): 35%

Cc1c(Cl)cccc1Nc1nc(-c2cccc(NC(=O)c3ccccc3)c2)cs1 [IML-211]
E. coli Assay LE395 (0-5) [1]: 4

COc1ccc(Cc2nc(-c3cccc(NC(=O)c4ccccc4F)c3)no2)cc1 [IML-217]
MST Tobacco (0-5) (Tobacco CGS): 2
E. coli Assay LE395 (0-5) [1]: 3
E. coli specificity (MOA) [1]: 5

COc1cccc(Nc2nc(-c3cccc(N4C(=O)c5ccccc5C4=O)c3)cs2)c1 [IML-218]
E. coli Assay LE395 (0-5) [1]: 3
E. coli specificity (MOA) [1]: 5

O=C(Nc1cccc(-c2cn(Cc3ccccc3)nn2)c1)c1cc(C(F)(F)F)ccn1 [IML-223]
E. coli Assay LE395 (0-5) [1]: 5
E. coli specificity (MOA) [1]: 5

O=C(Nc1cccc(-c2cn(Cc3ccccc3)nn2)c1)c1cccc(Cl)c1 [IML-232]
activity at 50 µM (Arabidopsis thaliana): 68%
Roquette assay spray (single average) (Roquette): 1.0
Roquette assay spray (twice average) (Roquette): 4.0

CCc1nc(-c2cncc(NC(=O)c3cccc(Cl)c3)c2)no1 [IML-234]
Roquette assay spray (single average) (Roquette): 1.5
Roquette assay spray (twice average) (Roquette): 3.0
TEV (relative to DMSO) (TEV (relative to DMSO)): 0.75

COc1cccc(-c2cc(C(=O)N3C[C@H](C(=O)O)c4ccccc43)no2)c1 [IML-238]
activity at 50 µM (Arabidopsis thaliana): 3%
Roquette assay spray (twice average) (Roquette): 2.0
TEV (relative to DMSO) (TEV (relative to DMSO)): 0.29

Reference: patent publication US11639345B2, “Methionine metabolic pathway inhibitors” (MIGAL—GALILEE RESEARCH INSTITUTE LTD., priority 2018, dated 2023)
